Data on 33 molecules can be found in patent US8741875B2, “Compounds as receptor modulators with therapeutic utility” (Allergan, Inc., priority 2009, dated 2014).

This assay concerns the target T1, human S1P1 receptor (Homo sapiens, UniProt P21453).
T1 construct: expressed in transfected cells; membranes used
Put plainly: GTP γ35S binding assay for S1P1 activity. It is filed as biochemical. The conditions noted are these: membranes, 30 min at 25° C., read-out: S1P1 EC50 (Activity potency: S1P1 receptor from GTP γ35S). As for the experimental part:
Compounds were tested for S1P1 activity using the GTP γ^35S binding assay. These compounds may be assessed for their ability to activate or block activation of the human S1P1 receptor in cells stably expressing the S1P1 receptor.
GTP γ^35S binding was measured in the medium containing (mM) HEPES 25, pH 7.4, MgCl2 10, NaCl 100, dithitothreitol 0.5, digitonin 0.003%, 0.2 nM GTP γ^35S, and 5 μg membrane protein in a volume of 150 μl. Test compounds were included in the concentration range from 0.08 to 5,000 nM unless indicated otherwise. Membranes were incubated with 100 μM 5′-adenylylimmidodiphosphate for 30 min, and subsequently with 10 μM GDP for 10 min on ice. Drug solutions and membrane were mixed, and then reactions were initiated by adding GTP γ^35S and continued for 30 min at 25° C. Reaction mixtures were filtered over Whatman GF/B filters under vacuum, and washed three times with 3 mL of ice-cold buffer (HEPES 25, pH7.4, MgCl2 10 and NaCl 100). Filters were dried and mixed with scintillant, and counted for ^35S activity using a β-counter. Agonist-induced GTP γ^35S binding was obtained by subtracting that in the absence of agonist. Binding data were analyzed using a non-linear regression method. In case of antagonist assay, the reaction mixture contained 10 nM S1P in the presence of test antagonist at concentrations ranging from 0.08 to 5000 nM.
In general terms: GTPγS is a poorly hydrolysed GTP analogue; its binding reports G protein activation.

Where only a bound is given, the exact number is not on record here.

T1 sequence (P21453 whole entry): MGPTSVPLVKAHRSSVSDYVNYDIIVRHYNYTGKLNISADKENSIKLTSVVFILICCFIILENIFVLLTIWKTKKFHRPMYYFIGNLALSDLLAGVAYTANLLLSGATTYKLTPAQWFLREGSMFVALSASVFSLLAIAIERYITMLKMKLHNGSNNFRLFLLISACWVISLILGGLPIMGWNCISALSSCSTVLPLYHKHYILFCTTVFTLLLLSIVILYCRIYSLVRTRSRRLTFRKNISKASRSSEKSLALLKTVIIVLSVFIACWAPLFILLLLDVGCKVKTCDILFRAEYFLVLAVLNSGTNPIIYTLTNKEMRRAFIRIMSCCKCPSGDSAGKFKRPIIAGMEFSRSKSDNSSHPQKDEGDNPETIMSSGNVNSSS

In general, EC50 refers to the concentration giving half of the maximal effect. For the molecule `COc1cccc(CCCCCOc2ccc(CNCCCP(=O)(O)O)cc2-c2cccs2)c1` [Compound 19, (3-{[4-{[5-(3-methoxyphenyl)pentyl]oxy}-3-(2-thienyl)benzyl]amino}propyl)phosphonic acid], the EC50 amounted to 1120 nM. With `COc1ccc(CCCCCOc2ccc(CNCCCP(=O)(O)O)cc2-c2cccs2)cc1` [Compound 20, (3-{[4-{[5-(4-methoxyphenyl)pentyl]oxy}-3-(2-thienyl)benzyl]amino}propyl)phosphonic acid], the EC50 worked out at 48.6 nM. Regarding `O=P(O)(O)CCCNCc1ccc(OCCCCCc2ccc(F)cc2)c(-c2cccs2)c1` [Compound 21, (3-{[4-{[5-(4-fluorophenyl)pentyl]oxy}-3-(2-thienyl)benzyl]amino}propyl)phosphonic acid], the EC50 was 19.7 nM. With `O=P(O)(O)CCCNCc1ccc(OCCCCCc2cccc(C(F)(F)F)c2)c(-c2ccco2)c1` [Compound 22, (3-{[3-(2-furyl)-4-({5-[3-(trifluoromethyl)phenyl]pentyl}oxy)benzyl]amino}propyl)phosphonic acid], the EC50 amounted to 65.7 nM. Consider `COc1cccc(CCCCCOc2ccc(CNCCCP(=O)(O)O)cc2-c2ccco2)c1` [Compound 23, (3-{[3-(2-furyl)-4-{[5-(3-methoxyphenyl)pentyl]oxy}benzyl]amino}propyl)phosphonic acid], for which the EC50 stood at 240 nM.

Take `O=P(O)(O)CCCNCc1ccc(OCCCCCc2ccc(F)cc2)c(-c2ccco2)c1` [Compound 24, (3-{[4-{[5-(4-fluorophenyl)pentyl]oxy}-3-(2-furyl)benzyl]amino}propyl)phosphonic acid]: the EC50 was determined as 0.98 nM.

In the case of `O=P(O)(O)CCCNCc1ccc(OCCCCc2ccc(F)cc2)c(-c2cccs2)c1` [Compound 25, [3-({4-[4-(4-fluorophenyl)butoxy]-3-(2-thienyl)benzyl}amino)propyl]phosphonic acid], the EC50 was 67.5 nM.

Regarding `O=P(O)(O)CCCNCc1ccc(OCCCCc2ccc(F)cc2)c(-c2ccco2)c1` [Compound 26, [3-({4-[4-(4-fluorophenyl)butoxy]-3-(2-furyl)benzyl}amino)propyl]phosphonic acid], the EC50 was found to be 98.9 nM. On to `COc1ccc(CCCCCOc2ccc(CNCCCP(=O)(O)O)cc2-c2ccco2)cc1F` [Compound 27, (3-{[4-{[5-(3-fluoro-4-methoxyphenyl)pentyl]oxy}-3-(2-furyl)benzyl]amino}propyl)phosphonic acid], for which the EC50 was found to be 7 nM. Consider `COc1ccc(CCCCCOc2ccc(CNCCCP(=O)(O)O)cc2-c2cccs2)cc1F` [Compound 28, (3-{[4-{[5-(3-fluoro-4-methoxyphenyl)pentyl]oxy}-3-(2-thienyl)benzyl]amino}propyl)phosphonic acid], for which the EC50 stood at 1.9 nM. Turning to `O=P(O)(O)CCCNCc1ccc(OCCCCCc2ccc(Cl)cc2)c(-c2ccco2)c1` [Compound 29, (3-{[4-{[5-(4-chlorophenyl)pentyl]oxy}-3-(2-furyl)benzyl]amino}propyl)phosphonic acid], the EC50 amounted to 5.7 nM. In the case of `O=P(O)(O)CCCNCc1ccc(OCCCCCc2ccc(Cl)cc2)c(-c2cccs2)c1` [Compound 30, (3-{[4-{[5-(4-chlorophenyl)pentyl]oxy}-3-(2-thienyl)benzyl]amino}propyl)phosphonic acid], the EC50 came out at 8 nM.

For the molecule `COc1ccc(CCCCCOc2ccc(CNCCCP(=O)(O)O)cc2-c2ccco2)cc1Cl` [Compound 31, (3-{[4-{[5-(3-chloro-4-methoxyphenyl)pentyl]oxy}-3-(2-furyl)benzyl]amino}propyl)phosphonic acid], the EC50 is 8.4 nM. For `COc1ccc(CCCCCOc2ccc(CNCCCP(=O)(O)O)cc2-c2cccs2)cc1Cl` [Compound 32, (3-{[4-{[5-(3-chloro-4-methoxyphenyl)pentyl]oxy}-3-(2-thienyl)benzyl]amino}propyl)phosphonic acid] the value was 6.5 nM; for `COc1ccc(CCCCCOc2ccc(CNCCCP(=O)(O)O)cc2-c2ccco2)cc1` [Compound 33, (3-{[3-(2-furyl)-4-{[5-(4-methoxyphenyl)pentyl]oxy}benzyl]amino}propyl)phosphonic acid], 7.1 nM; for `COc1cccc(CCCCCOc2ccc(CNCCCP(=O)(O)O)cc2-c2ccoc2)c1` [Compound 34, (3-{[3-(3-furyl)-4-{[5-(3-methoxyphenyl)pentyl]oxy}benzyl]amino}propyl)phosphonic acid], 12.5 nM. `O=P(O)(O)CCCNCc1ccc(OCCCCCc2ccccc2)c(-c2cocn2)c1` [Compound 35, [3-({3-(1,3-oxazol-4-yl)-4-[(5-phenylpentyl)oxy]benzyl}amino)propyl]phosphonic acid]: the EC50 amounted to 54.1 nM. Then `CC(CCNCc1ccc(OCCCCCc2ccccc2)c(-c2ccco2)c1)P(=O)(O)O` (stereo not drawn) [Compound 36, [3-({3-(2-furyl)-4-[(5-phenylpentyl)oxy]benzyl}amino)-1-methylpropyl]phosphonic acid], with 18.5 nM. In the case of `O=[PH](O)CCCNCc1ccc(OCCCCCc2ccccc2)c(-c2cccs2)c1` [Compound 37, [3-({4-[(5-phenylpentyl)oxy]-3-(2-thienyl)benzyl}amino)propyl]phosphinic acid], the EC50 came out at 52.6 nM. As for `O=P(O)(O)CCCNCc1ccc(OCCCCCc2ccccc2)c(-c2ccc(F)o2)c1` [Compound 38, [3-({3-(5-fluoro-2-furyl)-4-[(5-phenylpentyl)oxy]benzyl}amino)propyl]phosphonic acid], the EC50 stood at 1.9 nM. For `O=P(O)(O)CCCNCc1ccc(OCCCCCc2cccc(Cl)c2)c(-c2ccco2)c1` [Compound 39, (3-{[4-{[5-(3-chlorophenyl)pentyl]oxy}-3-(2-furyl)benzyl]amino}propyl)phosphonic acid] the value was 32.8 nM; for `Cc1cccc(CCCCCOc2ccc(CNCCCP(=O)(O)O)cc2-c2ccco2)c1` [Compound 40, (3-{[3-(2-furyl)-4-{[5-(3-methylphenyl)pentyl]oxy}benzyl]amino}propyl)phosphonic acid], 34.9 nM; for `O=P(O)(O)C(F)(F)CCNCc1ccc(OCCCCCc2ccccc2)c(-c2ccc(F)o2)c1` [Compound 41, [1,1-difluoro-3-({3-(5-fluoro-2-furyl)-4-[(5-phenylpentyl)oxy]benzyl}amino)propyl]phosphonic acid], 53.6 nM. For `CC(NCCCP(=O)(O)O)c1ccc(OCCCCCc2ccccc2)c(-c2cccs2)c1` (stereo not drawn) [Compound 42, {3-[(1-{4-[(5-phenylpentyl)oxy]-3-(2-thienyl)phenyl}ethyl)amino]propyl}phosphonic acid] the value was 16.4 nM. In the case of `O=P(O)(O)CCCNCc1ccc(OCCCCCc2ccccc2)c(-n2cccn2)c1` [Compound 43, [3-({4-[(5-phenylpentyl)oxy]-3-(1H-pyrazol-1-yl)benzyl}amino)propyl]phosphonic acid], the EC50 was determined as 8.5 nM.

For the molecule `O=P(O)(O)CCCNCc1ccc(OCCCCCc2ccccc2)c(-n2cccc2)c1` [Compound 44, [3-({4-[(5-phenylpentyl)oxy]-3-(1H-pyrrol-1-yl)benzyl}amino)propyl]phosphonic acid], the EC50 was 3.4 nM. Then `[2H]C([2H])(CCCCc1ccccc1)Oc1ccc(CNCCCP(=O)(O)O)cc1-c1ccco1` [Compound 45, [3-({3-(2-furyl)-4-[(5-phenylpentyl)oxy]benzyl}amino)propyl]phosphonic acid-d_2—], with 1.7 nM; and `O=P(O)(O)CCCNCc1ccc(NCCCCCc2ccccc2)c(-c2ccco2)c1` [Compound 46, [3-({3-(2-furyl)-4-[(5-phenylpentyl)amino]benzyl}amino)propyl]phosphonic acid], with 1.5 nM. For `O=P(O)(O)CCCNCc1ccc(NCCCCCc2ccccc2)c(-c2ncco2)c1` [Compound 47, [3-({3-(1,3-oxazol-2-yl)-4-[(5-phenylpentyl)amino]benzyl}amino)propyl]phosphonic acid] the value was 15.6 nM; for `O=P(O)(O)CCCNCc1ccc(NCCCCCc2ccccc2)c(-c2nccs2)c1` [Compound 48, [3-({4-[(5-phenylpentyl)amino]-3-(1,3-thiazol-2-yl)benzyl}amino)propyl]phosphonic acid], 17.4 nM. As to `O=P(O)(O)CCCNCc1ccc(OCCCCCc2ccccc2F)c(-c2ccco2)c1` [Compound 49, (3-{[4-{[5-(2-fluorophenyl)pentyl]oxy}-3-(2-furyl)benzyl]amino}propyl)phosphonic acid], the EC50 stood at 1 nM. Then `O=P(O)(O)CCCNCc1ccc(OCCCCCc2ccccc2F)c(-c2ccoc2)c1` [Compound 50, (3-{[4-{[5-(2-fluorophenyl)pentyl]oxy}-3-(3-furyl)benzyl]amino}propyl)phosphonic acid], with below 25 nM; and `O=P(O)(O)CCCNCc1cc(-c2ccco2)c(OCCCCCc2ccccc2)cc1F` [Compound 51, [3-({2-fluoro-5-(2-furyl)-4-[(5-phenylpentyl)oxy]benzyl}amino)propyl]phosphonic acid], with 1 nM.
